Measurements taken from patent US9522920B2, “Bromodomain inhibitors and uses thereof” (Constellation Pharmaceuticals, Inc., priority 2010, dated 2016).
Where two headings read alike, the source gives them in different places.

Legend:
[1] = tested on: IL-6 secretion; assay: Cell-based IL-6 quantification assay (ELISA, Mesoscale) in LPS-stimulated THP-1 cells; details: Table 14, THP-1 cells, LPS, 16 h, read-out: IL6
Procedure, shortened: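 THP-1 cells stimulated with LPS at 4 μg/mL final and exposed to compounds for 16 h. Supernatant IL-6 measured by Mesoscale ELISA and normalized to CellTiter-Glo cell content. Percent inhibition derived from that ratio.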

[2] = molecular target: T1, BRD4(BD1) (Homo sapiens, UniProt O60885); assay: BRD4 AlphaLisa binding assay (Alphascreen); details: Table 14; BRD4 AlphaLisa Binding Assay; read-out: Alpha screen
T1 construct: His; made in house
Procedure, shortened: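 BRD4(BD1) (30 nM) incubated 20 min at room temperature with peptide (200 nM) and compound in 40 mM HEPES pH 7.0, 40 mM NaCl, 1 mM DTT, 0.01% BSA, 0.008% Brij-35, 1.2% DMSO.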

[3] = tested on: MYC mRNA; assay: cMyc RNA quantification assay (QuantiGene) in MV4:11 cells; type: cell-based; details: read-out: MYC-MV411
Experimental: MV4:11 (AML) or Raji (Burkitt's lymphoma) cells were seeded in a 96-well plate and incubated in the presence of various concentrations of compounds for 4 h. Relative mRNA levels were quantitated by using QuantiGene 2.0 assay (Affymetrix) according to the manufacturer's recommendation. Signals were detected by using an Envision plate reader (Perkin-Elmer). Biological duplicates were averaged and normalized to vehicle (DMSO) control to calculate percent MYC mRNA levels.

[4] = Homo sapiens, MV4-11, 4 h, Table 14, MV4:11 cells

| Compound | IC50 ([1]; Homo sapiens, THP-1, 16 h) | IC50 [2] | IC50 [3, 4] | IC50 [1] | IC50 ([3]; Table 14, MV4:11 cells, 4 h) |
| --- | --- | --- | --- | --- | --- |
| Cc1noc2c1-c1ccccc1C(c1ccc(C(C)(C)O)cc1)=N[C@H]2CC(N)=O [Compound 235] | < 500 nM | < 500 nM | < 500 nM | – | – |
| Cc1noc2c1-c1sc(C)c(C)c1C(c1ccc(C(C)(C)O)cc1)=NC2CC(N)=O (stereo not drawn) [Compound 236] | < 500 nM | < 500 nM | < 500 nM | – | – |
| Cc1noc2c1-c1ccc(-c3ccc(C(=O)O)cc3)cc1C(c1ccc(F)cc1)=N[C@H]2C [Compound 237] | < 500 nM | < 500 nM | < 500 nM | – | – |
| Cc1noc2c1-c1ccccc1C(c1ccc(F)cc1)=NC2C(F)(F)F (stereo not drawn) [Compound 238, 6-(4-fluorophenyl)-1-methyl-4-(trifluoromethyl)-4H-benzo[c]isoxazolo[4,5-e]azepine] | > 1000 nM | > 1000 nM | > 1000 nM | – | – |
| Cc1noc2c1-c1ccc(O)cc1C(c1ccc(Cl)cc1)=N[C@H]2CC(N)=O [Compound 239, 2-((4S)-6-(4-chlorophenyl)-8-hydroxy-1-methyl-4H-benzo[c]isoxazolo[4,5-e]azepin-4-yl)acetamide] | < 500 nM | < 500 nM | < 500 nM | – | – |
| Cc1noc2c1-c1ccc(Cl)nc1C(c1ccc(Cl)cc1)=NC2 [Compound 240, 8-Chloro-6-(4-chlorophenyl)-1-methyl-4H-isoxazolo[5,4-c]pyrido[3,2-e]azepine] | > 1000 nM | > 1000 nM | > 1000 nM | – | – |
| CNc1ccc2c(n1)C(c1ccc(Cl)cc1)=NCc1onc(C)c1-2 [Compound 241, 6-(4-Chlorophenyl)-N,1-dimethyl-4H-isoxazolo[5,4-c]pyrido[3,2-e]azepin-8-amine] | < 500 nM | < 500 nM | < 500 nM | – | – |
| COc1ccc2c(n1)C(c1ccc(Cl)cc1)=NCc1onc(C)c1-2 [Compound 242, 6-(4-Chlorophenyl)-8-methoxy-1-methyl-4H-isoxazolo[5,4-c]pyrido[3,2-e]azepine] | > 1000 nM | 500 to 1000 nM | > 1000 nM | – | – |
| Cc1noc2c1-c1ccc(=O)[nH]c1C(c1ccc(Cl)cc1)=NC2 [Compound 243, 6-(4-Chlorophenyl)-1-methyl-4H-isoxazolo[5,4-c]pyrido[3,2-e]azepin-8(7H)-one] | > 1000 nM | 500 to 1000 nM | > 1000 nM | – | – |
| CCNC(=O)NC1N=C(c2ccc(Cl)cc2)c2ccccc2-c2c(C)noc21 (stereo not drawn) [Compound 245, 1-(6-(4-chlorophenyl)-1-methyl-4H-benzo[c]isoxazolo[4,5-e]azepin-4-yl)-3-ethylurea] | < 500 nM | < 500 nM | < 500 nM | – | – |
| Cc1noc2c1-c1ccc(=O)n(C)c1C(c1ccc(Cl)cc1)=NC2 [Compound 246, 6-(4-Chlorophenyl)-1,7-dimethyl-4H-isoxazolo[5,4-c]pyrido[3,2-e]azepin-8(7H)-one] | > 1000 nM | 500 to 1000 nM | > 1000 nM | – | – |
| Cc1noc2c1-c1ccc(N3CCCC3)nc1C(c1ccc(Cl)cc1)=NC2 [Compound 247, 6-(4-Chlorophenyl)-1-methyl-8-(pyrrolidin-1-yl)-4H-isoxazolo[5,4-c]pyrido[3,2-e]azepine] | < 500 nM | < 500 nM | 500 to 1000 nM | – | – |
| CCOc1ccc2c(c1)C(c1ccc(Cl)cc1)=N[C@@H](CC(N)=O)c1onc(C)c1-2 [Compound 248] | < 500 nM | < 500 nM | < 500 nM | – | – |
| Cc1noc2c1-c1ccc(OC(C)C)cc1C(c1ccc(Cl)cc1)=N[C@H]2CC(N)=O [Compound 249] | – | < 500 nM | – | < 500 nM | < 500 nM |
| Cc1noc2c1-c1cnc(N3CCCC3)cc1C(c1ccc(Cl)cc1)=NC2 [Compound 255, 6-(4-Chlorophenyl)-1-methyl-8-(pyrrolidin-1-yl)-4H-isoxazolo[5,4-c]pyrido[3,4-e]azepine] | < 500 nM | < 500 nM | 500 to 1000 nM | – | – |
| Cc1noc2c1-c1cnc(Cl)cc1C(c1ccc(Cl)cc1)=NC2 [Compound 256, 8-Chloro-6-(4-chlorophenyl)-1-methyl-4H-isoxazolo[5,4-c]pyrido[3,4-e]azepine] | > 1000 nM | > 1000 nM | > 1000 nM | – | – |
| Cc1noc2c1-c1ccc(N)nc1C(c1ccc(Cl)cc1)=NC2 [Compound 257, 6-(4-Chlorophenyl)-1-methyl-4H-isoxazolo[5,4-c]pyrido[3,2-e]azepin-8-amine] | 500 to 1000 nM | < 500 nM | > 1000 nM | – | – |
